Test results from patent publication US20200270309A1, “MALEIMIDE GROUP-MODIFIED ANGIOGENESIS INHIBITOR HM-1 AND USE THEREOF” (NANJING ANJI BIOLOGICAL TECHNOLOGY CO., LTD, priority 2017, published 2020).
Marks after values point to notes of the source that are not given here. Peptide text beside a SMILES is read from it. * marks the point of attachment. X74 = O=C1C=CC(=O)N1c1cccc(CCCCCCCCCCC(=O)*)c1; X61 = O=C1C=CC(=O)N1c1cccc(CCCC(=O)*)c1

Key:
[1] = tested on: retinal neovascularization (OIR model); experiment: Retinal vessels in OIR mice; format: in vivo, C57/B16 mice; details: for Area of neovascular plexus (mm^2): dose 0.05 μM in the vitreous chamber on day 13, retinal vessels evaluated on day 17; for Inhibition rate (%): dose 0.05 μM in the vitreous chamber on day 13, retinal vessels evaluated on day 17, vs negative control
In short: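 C57/B16 pups were held in 75% oxygen from postnatal day 7 to 12, then returned to room air. On day 13 they received intravitreal saline or compound. On day 17 perfused vessels were labelled by Texas red tomato agglutinin injected into the left ventricle (5 min circulation) and retinal vasculature assessed.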

[2] = tested on: carrageenan-induced toe swelling; experiment: Carrageenan-induced toe swelling in rats; format: in vivo; details: SD rats; for Swelling degree 1 h: 1 h after carrageenan; for Swelling degree 3 h: 3 h after carrageenan; for Swelling degree 5 h: 5 h after carrageenan; for Swelling degree 7 h: 7 h after carrageenan
In short: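 Rats dosed by injection once daily for 3 d, controls given equal-volume saline. Right hind paw volume measured by water displacement to a marked joint line; swelling degree (mL) is paw volume after carrageenan inflammation minus volume before.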

[3] = tested on: choroidal neovascularization; experiment: Choroidal neovascularization in rats (laser photocoagulation, FFA); format: in vivo; details: BN rats
In short: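 Male BN rats aged 6-8 weeks were given 8 krypton-laser spots around the optic disc (647.1 nm, 350 mW, 50 μm, 0.05 s). Once the model was confirmed, groups of 5 got daily intravitreal compound at 0.05 μM or saline for 1 week. FFA followed at 3, 7, 14 and 28 days after dosing.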

[4] = tested on: human retinal capillary endothelial cells (HRCECs); experiment: MTT proliferation inhibition on HRCECs; format: cell-based; details: 48 h; for A570 nm-A630 nm: mean±SD
In short: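 HRCECs seeded at 3.0×10^4 cells/mL, adhered overnight, then exposed to polypeptide for 48 h at 37 °C, 5% CO2. MTT added 4 h, formazan dissolved in DMSO, absorbance 570/630 nm; PIR (%) = 1 − treated/negative control, mean±SD of three independent runs.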

[5] = tested on: xylene-induced ear swelling; experiment: Xylene-induced mouse ear swelling; format: in vivo; details: Kunming mice, injected once a day for 5 days; for Inhibition rate (%): xylene-induced ear swelling
In short: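 Kunming mice dosed by injection once daily for 5 days; 1 h after last dose, 0.05 mL xylene applied to right ear, left ear untreated. Mice killed 2 h later; punched ear pieces weighed. Swelling degree = right minus left ear weight; swelling rate = swelling degree/left ear weight ×100%.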

[6] = day 3 after administration, total light spot number was 297, 0.05 μM in the vitreous chamber once a day for 1 week
[7] = day 7 after administration, total light spot number was 186, 0.05 μM in the vitreous chamber once a day for 1 week
[8] = day 14 after administration, total light spot number was 137, 0.05 μM in the vitreous chamber once a day for 1 week
[9] = day 28 after administration, total light spot number was 69, 0.05 μM in the vitreous chamber once a day for 1 week
[10] = dose 2 mg/kg, right minus left ear piece weight 2 h after xylene
[11] = dose 4 mg/kg, right minus left ear piece weight 2 h after xylene
[12] = dose 8 mg/kg, right minus left ear piece weight 2 h after xylene

SMILES | Area of neovascular plexus (mm^2) [1] [mm^2] | Inhibition rate (%) [1] | Swelling degree 1 h ([2]; 2.0 mg/kg once a day for 3 d) [mg] | Swelling degree 3 h ([2]; 2.0 mg/kg once a day for 3 d) [mg] | Swelling degree 5 h ([2]; 2.0 mg/kg once a day for 3 d) [mg] | Swelling degree 7 h ([2]; 2.0 mg/kg once a day for 3 d) [mg] | Swelling degree 1 h ([2]; 4.0 mg/kg once a day for 3 d) [mg] | Swelling degree 3 h ([2]; 4.0 mg/kg once a day for 3 d) [mg] | Swelling degree 5 h ([2]; 4.0 mg/kg once a day for 3 d) [mg] | Swelling degree 7 h ([2]; 4.0 mg/kg once a day for 3 d) [mg] | CNV Incidence (%) [3, 6] [%] | Leakage Light spot number [3, 6] | CNV Incidence (%) [3, 7] [%] | Leakage Light spot number [3, 7] | CNV Incidence (%) [3, 8] [%] | Leakage Light spot number [3, 8] | CNV Incidence (%) [3, 9] [%] | Leakage Light spot number [3, 9] | Inhibition rate (%) ([4]; dose 0.05 μM) [%*] | A570 nm-A630 nm ([4]; dose 0.05 μM) | other results
C[C@H](NC(=O)CNC(=O)[C@H](CCCNC(=N)N)NC(=O)CCCCCCCCCCc1cccc(N2C(=O)C=CC2=O)c1)C(=O)N[C@@H](CC(=O)O)C(=O)N[C@@H](CCCNC(=N)N)C(=O)N[C@@H](C)C(=O)NCC(=O)NCC(=O)NCC(=O)NCC(=O)N[C@@H](CCCNC(=N)N)C(=O)NCC(=O)N[C@@H](CC(=O)O)C(=O)O [X34] (X74-RGADRAGGGGRGD-OH) | 0.120 ± 0.014 | 43.40%* | 0.26 ± 0.18 | 0.38 ± 0.13 | 0.39 ± 0.11 | 0.35 ± 0.14 | 0.22 ± 0.18 | 0.38 ± 0.15 | 0.36 ± 0.16 | 0.34 ± 0.13 | 52.19 | 155 | 47.31 | 88 | 45.99 | 63 | 42.03 | 29 | 50.55 | 0.6536 ± 0.08102 | Inhibition rate (%) ([4]; dose 0.1 μM): 51.43%**; A570 nm-A630 nm ([4]; dose 0.1 μM): 0.6420 ± 0.08726; Inhibition rate (%) ([4]; dose 0.2 μM): 59.92%*; A570 nm-A630 nm ([4]; dose 0.2 μM): 0.5298 ± 0.07541; Swelling degree (mg) [5, 10]: 3.86 ± 0.43** mg; Inhibition rate (%) ([5]; dose 2 mg/kg): 38.04%; Swelling degree (mg) [5, 11]: 3.36 ± 0.53** mg; Inhibition rate (%) ([5]; dose 4 mg/kg): 46.07%; Swelling degree (mg) [5, 12]: 3.2 ± 0.39** mg; Inhibition rate (%) ([5]; dose 8 mg/kg): 48.64%
C[C@H](NC(=O)CNC(=O)[C@H](CCCNC(=N)N)NC(=O)CCCc1cccc(N2C(=O)C=CC2=O)c1)C(=O)N[C@@H](CC(=O)O)C(=O)N[C@@H](CCCNC(=N)N)C(=O)N[C@@H](C)C(=O)NCC(=O)NCC(=O)NCC(=O)NCC(=O)N[C@@H](CCCNC(=N)N)C(=O)NCC(=O)N[C@@H](CC(=O)O)C(=O)O [X27] (X61-RGADRAGGGGRGD-OH) | 0.106 ± 0.002 | 50.00%** | 0.27 ± 0.13 | 0.33 ± 0.14 | 0.39 ± 0.17 | 0.36 ± 0.16 | 0.24 ± 0.12 | 0.33 ± 0.16 | 0.32 ± 0.17 | 0.34 ± 0.14 | 54.88 | 163 | 46.24 | 86 | 42.34 | 58 | 36.23 | 25 | 49.84 | 0.6629 ± 0.02448 | Inhibition rate (%) ([4]; dose 0.1 μM): 56.47%**; A570 nm-A630 nm ([4]; dose 0.1 μM): 0.5753 ± 0.02814; Inhibition rate (%) ([4]; dose 0.2 μM): 56.64%*; A570 nm-A630 nm ([4]; dose 0.2 μM): 0.5731 ± 0.04774; Swelling degree [5, 10]: 5.36 ± 0.32 mg; Inhibition rate (%) ([5]; dose 2 mg/kg): 13.96%; Swelling degree (mg) [5, 11]: 4.76 ± 0.89* mg; Inhibition rate (%) ([5]; dose 4 mg/kg): 23.60%; Swelling degree (mg) [5, 12]: 3.13 ± 0.38* mg; Inhibition rate (%) ([5]; dose 8 mg/kg): 27.13%
